Paper PMC11243066, “Synthesis and Biological Evaluation of Novel Biased Mu-Opioid Receptor Agonists” (Molecules, 2024)

Tests used:
human μ-opioid receptor = target: T1, human μ-opioid receptor (Homo sapiens, UniProt P35372); test: cell-based; format: cell-based; conditions: CHO/μOR cells; for Emax: at the concentration printed in parentheses in the cell, read-out: Max Effect ± SEM (%), µOR-Gi/o activation assay
T1 construct: expressed in transfected cells; host or cells: CHO (CHO/μOR cells)
Method: The inhibition assay was performed as described previously. In brief, tested compound dilutions (with final concentrations of 100 µM, 50 µM, 10 µM, 1 µM, 500 nM, 100 nM, 50 nM, 10 nM, 1 nM, and 100 pM) were produced in saline or DMSO in triplicate. CHO/μOR cells were suspended in the assay buffer and counted, maintaining a cell density of 2000 cells per well, with 5 µL from each well seeded into a 384-well plate. Subsequently, 5 µL of the tested compound solution per well was dispensed into the plate, which was then placed in a 25 °C incubator and incubated in the dark for 30 min. Next, 10 µL of cAMP standard working solution was added to the empty wells of the plate, followed by the addition of 5 µL of Eu-cAMP and Anti-cAMP per well. The plate was subsequently placed back in a 25 °C incubator and further incubated in the dark for 1 h.
CHO cells expressing the human μ-opioid receptor were cultivated for the assessment of compound effects. […] Cells collected during the exponential phase of growth were dissociated without enzymes to preserve receptor integrity, resuspended in assay buffer, and counted to achieve a uniform concentration. Cell density was adjusted to 2000 cells per well in a 384-well plate, promoting uniform distribution and optimal receptor presence. Post-seeding at 25 °C in darkness facilitated cell adherence and stabilization prior to compound introduction. Compounds were added in serial dilutions, with meticulous dispensing techniques ensuring dose uniformity. Following a 1 h incubation at 25 °C, TR-FRET reagents were applied to measure cAMP levels, indicative of μOR activity. The Envision system recorded these levels, quantifying compound inhibitory effects. Meticulous aseptic techniques and vigilant monitoring were imperative throughout to guarantee data precision from the assay.

mice [1] = test: Respiratory depression (blood pO2, blood gas analyzer); conditions: single i.v. dose 20 mg/kg (morphine 4 mg/kg), 5-40 min
Method: (§2) The mice were group-housed in a controlled temperature environment and subjected to a 12 h light/dark cycle (lights on from 07:00 to 19:00). Food and water were provided ad libitum. All animal procedures were conducted in accordance with the policies and recommendations of the International Association for the Study of Pain and the National Health and Animal Welfare Committee of the Beijing Institute of Pharmacology, with the aim of minimizing the number of animals used and their suffering.

mice [2] = test: Hot-water tail withdrawal test; format: in vivo, CD-1 mice; conditions: 20 mg/kg i.v. tail vein, 15 min post administration
Method: (§1) Food and water were provided ad libitum.
The hot-water tail withdrawal test was performed as described previously. In brief, the hot-water tail withdrawal test was conducted using a water bath maintained at 55 ± 0.5 °C. The distal 3 cm section of the mouse’s tail was immersed perpendicularly into the hot water. The duration for which the tail remained in the water was recorded as the initial tail withdrawal latency (TWL0). […] Following the administration of a single dose of the test compound (20 mg/kg, i.v.) or vehicle, the subsequent tail withdrawal latency (TWL) was measured at various time intervals (15, 30, 45, 60, and 90 min). To prevent potential tissue damage, a maximum cutoff latency of 16 s was enforced. Antinociception was quantified using the percentage of maximal possible effect (%MPE), calculated as %MPE = 100 × (TWL − TWL0)/(16 − TWL0).

mice [3] = test: Physical dependence (naloxone-precipitated withdrawal jumping); conditions: i.v. once daily for 5 days, PZM21 and 6a 20 mg/kg, morphine 2 mg/kg, jumps over 20 min
Method: as §2

mice [4] = test: Acetic acid-induced writhing test; format: in vivo, CD-1 mice; conditions: 20 mg/kg i.v. tail vein
Method: as §1
The acetic acid-induced writhing test was performed as described previously. In brief, after pretreatment with the test compound at a dose of 20 mg/kg via intravenous tail vein injection, 1% (v/v) glacial acetic acid was administered intraperitoneally (i.p.) at a dose of 10 mL/kg. Subsequently, the number of writhing responses over a 20 min period was recorded. The antinociception rate was calculated as the percentage of maximal possible effect (%MPE), where %MPE = 100 × (NWV − NWT)/NWV. NWV and NWT represent the average number of writhing responses of the vehicle and test groups, respectively.

[5] = target: T2, human μOR β-arrestin2 pathway (Homo sapiens, UniProt P35372); test: cell-based; format: cell-based; conditions: U2OS/human μOR β-arrestin cells, n = 3; for Emax: at the concentration printed in parentheses in the cell, read-out: Max Effect ± SEM (%), µOR β-arrestin recruitment assay
T2 construct: β-galactosidase enzyme fragment (PathHunter complementation tag); host or cells: U2OS (U2OS/human μOR β-arrestin cells)
Method: In this assay, optical signal values were detected employing the PathHunter® (DiscoverX, Shanghai, China) Detection Kit assay method. The agonistic activity of tested compounds on the human μOR β-arrestin2 pathway was quantified using a β-galactosidase-based enzyme fragment complementation assay. In brief, tested compound dilutions (with final concentrations of 100 μM, 50 μM, 10 μM, 1 μM, 500 nM, 100 nM, 50 nM, 10 nM, 1 nM, and 100 pM) were produced in saline or DMSO in triplicate. Next, 100 nL of the tested compound solution per well was dispensed into a 384-well cell culture plate. The U2OS/human μOR β-arrestin cells were resuspended in Opti-MEM and counted to achieve a cell density of 4000 cells per well, and 20 μL from each well was seeded into the 384-well cell culture plate. The plate was subsequently incubated at 37 °C in the dark for 120 min. Post-incubation, the cell plate was equilibrated to room temperature for 10–20 min, and 5 μL of the detection reagent were added to each well. Following a 60 min incubation at 25 °C, chemiluminescent readings were obtained using the envision system.
The cells were maintained at 37 °C with 5% CO2 in McCoy’s 5a medium with supplements and cultivated utilizing precise techniques to ensure accurate, reproducible results. Cells were gently dissociated for assays to maintain receptor integrity and resuspended in Opti-MEM® for compatibility with the PathHunter® (DiscoverX, Shanghai, China). Detection Kit. Cell density was adjusted to 4000 cells per well in a 384-well plate, to ensure that a uniform monolayer was established for the β-galactosidase assay. After seeding and incubation in the dark at 37 °C to facilitate cell attachment, the plates were equilibrated to room temperature prior to compound treatment. Serial dilutions of the compounds were assessed for pharmacological effect. A detection reagent was then added to measure β-galactosidase activity as indicative of μ-opioid receptor and β-arrestin2 interaction. Following reagent incubation, chemiluminescence was quantified, providing quantitative data on compound agonistic activity. Throughout, meticulous aseptic technique and strict adherence to protocols were imperative to ensure the integrity of the pharmacological data derived from these studies.

mice [6] = test: Formalin paw-licking test; format: in vivo, CD-1 mice; conditions: 20 mg/kg i.v. tail vein, Phase II
Method: as §1
The formalin injection assay was performed as described previously. […] After 15 min, 30 µL of a 2.7% formalin solution was administered into the right hind paw of each mouse. Then, the mice were put into the cage and their behaviors were observed. The antinociception rate was quantified as the percentage of maximal possible effect (%MPE), calculated as %MPE = 100 × (PLTV − PLTT)/PLTV; PLTV and PLTT represent the average paw-licking duration during Phase II for the vehicle and test groups, respectively.

T2 sequence (P35372 whole entry, the tested form may be a part): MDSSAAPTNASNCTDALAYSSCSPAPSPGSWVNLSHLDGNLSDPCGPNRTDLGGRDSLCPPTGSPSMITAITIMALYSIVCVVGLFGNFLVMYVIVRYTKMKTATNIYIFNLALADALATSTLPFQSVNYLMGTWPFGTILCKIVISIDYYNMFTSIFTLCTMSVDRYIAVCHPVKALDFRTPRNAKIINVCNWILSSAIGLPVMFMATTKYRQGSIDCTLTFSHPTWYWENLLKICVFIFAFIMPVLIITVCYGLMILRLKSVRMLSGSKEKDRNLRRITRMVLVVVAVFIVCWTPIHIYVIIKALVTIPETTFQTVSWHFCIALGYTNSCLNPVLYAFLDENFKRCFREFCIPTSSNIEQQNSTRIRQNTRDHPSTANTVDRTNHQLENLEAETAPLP
T1 sequence (P35372 whole entry): as the sequence (P35372 whole entry, the tested form may be a part) above

SMILES | EC50 (human μ-opioid receptor; cAMP inhibition, n = 3, "-" = no measurable activity, read-out: EC50 (nM) (95% CI), µOR-Gi/o activation assay) | Emax (human μ-opioid receptor; n = 3) [%] | respiratory depression: partial pressure of oxygen in blood vs vehicle (mice [1]) | pain inhibition rate (%MPE), hot-water tail-withdrawal test (mice [2]) [%] | physical dependence: jumping after naloxone-precipitated withdrawal vs vehicle (mice [3]) | analgesia rate (%MPE), acetic acid-induced writhing (mice [4]) | Emax [5] [%] | EC50 ([5]; "-" = no measurable activity, read-out: EC50 (nM) (95% CI), µOR β-arrestin recruitment assay) | antinociceptive efficacy (%MPE), formalin-induced paw licking, second phase (mice [6]) [%] | µOR agonist efficacy in Gi/o-protein signaling assay (in words) (human μ-opioid receptor)
CN(C)[C@H](CNC(=O)NCc1ccccc1)Cc1cccc2ccccc12 [6a, (S)-1-benzyl-3-(2-(dimethylamino)-3-(naphthalen-1-yl)propyl) urea] | 10.8 | 51.9 ± 1.06 | does not induce acute respiratory depression | 50.19 | does not induce physical dependence or withdrawal symptoms | exceeding 97% | 0.38 ± 0.21 | > 100000 | 73.80 | –
CN1CC[C@]23c4c5ccc(O)c4O[C@H]2[C@@H](O)C=C[C@H]3[C@H]1C5 [Morphine] | – | – | significant reduction in the partial pressure of oxygen level | – | significantly greater frequency of jumping | – | – | – | – | –
C[C@@H](Cc1ccsc1)NC(=O)NC[C@H](Cc1ccc(O)cc1)N(C)C [PZM21, reference compound] | – | 89.8 ± 2.93 | neither the 6a group nor the PZM21 group demonstrated any reduction in respiratory measures | 69.23 | neither 6a nor PZM21 elicited a significant increase in withdrawal behaviors | – | 3.09 ± 0.42 | – | 72.72 | significant µOR agonist efficacy
